Data set [1] can be described thus: Apparent pKa of LNP formulations by TNS fluorescence assay. To be noted: LNP cationic lipid/DSPC/cholesterol/DMG-PEG 50/10/38.5/1.5 mol %, pH 3 to 9.
Protocol: TNS was prepared as a 300 uM stock solution in distilled water. LNP formulations were diluted to 0.1 mg/ml total lipid in 3 mL of buffered solutions containing 50 mM sodium citrate, 50 mM sodium phosphate, 50 mM sodium borate, and 30 mM sodium chloride where the pH ranged from 3 to 9. An aliquot of the TNS solution was added to give a final concentration of 0.1 mg/ml and following vortex mixing fluorescence intensity was measured at room temperature in a Molecular Devices Spectramax iD3 spectrometer using excitation and mission wavelengths of 325 nm and 435 nm. A sigmoidal best fit analysis was applied to the fluorescence data and the pKa value was measured as the pH giving rise to half—maximal fluorescent intensity.
Data set [2] can be described thus: Encapsulation efficiency of lipid nanoparticles (Quant-it Ribogreen RNA assay). It counts as physicochemical. To be noted: LNP of cationic lipid/DSPC/cholesterol/PEG-lipid 50:10:38.5:1.5 with mRNA. Put shortly:
(§1)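 LNPs of cationic lipid:DSPC:cholesterol:PEG-lipid (50:10:38.5:1.5 molar) with mRNA in 10–50 mM citrate pH 4, microfluidic mixing at 1:3 ethanol:aqueous, lipid:mRNA weight ratio ~10:1–30:1, dialysed into DPBS and 0.2 μm filtered. Size by DLS, 173° backscatter; encapsulation efficiency by Ribogreen assay.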

Data set [3] is described as follows: Lipid nanoparticle size and polydispersity by dynamic light scattering. It counts as physicochemical. To be noted: LNP of cationic lipid/DSPC/cholesterol/PEG-lipid 50:10:38.5:1.5 with mRNA. The method in brief: as §1

These results are taken from patent US20220331414A1, “LIPID COMPOUNDS AND LIPID NANOPARTICLE COMPOSITIONS” (Suzhou Abogen Biosciences Co., Ltd., priority 2020, published 2022).

`CCCCCCCCCOC(=O)CCCCCOP(=O)(NCCCCN(C)C)OCCCCCC(=O)OCCCCCCCCC` [Compound 2]: in data set [1], the “Apparant Pka” value worked out at 9.07. For the same molecule, the “Encapsulation Efficiency” value in data set [2] is recorded as 98.5%. For the same molecule, in data set [3], the polydispersity was 0.181 and the “size (nm)” value is recorded as 116.8 nm.

With `CCCCCCCCCOC(=O)CCCCCCCOP(=O)(NCCCN(C)C)OCCCCCCCC(=O)OC(CCCCCCCC)CCCCCCCC` (centres unmarked) [Compound 40], the “Apparant Pka” value in data set [1] is reported as 7.77. Moreover, in data set [2], the “Encapsulation Efficiency” value is 99.6%. Moreover, in data set [3], the polydispersity is reported as 0.122 and the “size (nm)” value was 80.83 nm.

Take `CCCCCCCCCOP(=O)(OCCCCCCCCC)OCCCN(C)C` [Compound 8]: the “Apparant Pka” value in data set [1] was determined as 8.10. Further, in data set [2], the “Encapsulation Efficiency” value stood at 93.2%. Also, in data set [3], the polydispersity is 0.187 and the “size (nm)” value is 56.41 nm.

Turning to `CCCCCCCCCCCCCOP(=O)(OCCCCCCCCCCCCC)N1CCC(N2CCOCC2)CC1` [Compound 19], the “Apparant Pka” value in data set [1] is recorded as 6.38. In data set [2], the “Encapsulation Efficiency” value is 73.7%. For the same molecule, in data set [3], the polydispersity is reported as 0.086 and the “size (nm)” value was 110.8 nm.

For `CCCCCCCCCCCCCOP(=O)(NCCN1CCN(C(C)=O)CC1)OCCCCCCCCCCCCC` [Compound 17], in data set [1], the “Apparant Pka” value is listed as 5.42. In addition, the “Encapsulation Efficiency” value in data set [2] was found to be 61.6%. Moreover, in data set [3], the polydispersity amounted to 0.073 and the “size (nm)” value was 119.8 nm.

As to `CCCCCCCCC(CCCCCCCC)OC(=O)CCCCCCCOP(=O)(NCCCCN(C)C)OCCCCCCC` (centres unmarked) [Compound 44], the “Apparant Pka” value in data set [1] is listed as 5.17. For the same molecule, the “Encapsulation Efficiency” value in data set [2] stood at 94.0%. For the same molecule, in data set [3], the polydispersity was 0.187 and the “size (nm)” value turned out to be 51.72 nm.

For `CCCCCCCCC(C)COP(=O)(NCCN1CCCC1)OCC(C)CCCCCCCC` (centres unmarked) [Compound 68], in data set [1], the “Apparant Pka” value is reported as 7.401. Besides, the “Encapsulation Efficiency” value in data set [2] is on record as 95.0%. Further, in data set [3], the polydispersity came out at 0.253 and the “size (nm)” value worked out at 86.75 nm.

Regarding `CCCCCCCCCCC(CCCCCCCC)COP(=O)(NCCN(CC)CC)OCC(CCCCCCCC)CCCCCCCCCC` (centres unmarked) [Compound 78], the “Apparant Pka” value in data set [1] turned out to be 5.969. Further, the “Encapsulation Efficiency” value in data set [2] was 95.2%. Further, in data set [3], the polydispersity worked out at 0.234 and the “size (nm)” value is listed as 63.03 nm.

With `CCCCCCCCCCCCCCOP(=O)(NCCCN(C)C)OCCCCCCCCCCCCCC` [Compound 11], the “Apparant Pka” value in data set [1] turned out to be 8.53. Also, the “Encapsulation Efficiency” value in data set [2] was found to be 81.3%. Further, in data set [3], the polydispersity worked out at 0.092 and the “size (nm)” value worked out at 107.7 nm.

Turning to `CCCCCCCCC(CCCCCC)COP(=O)(NCCN(CCO)C1CCC1)OCC(CCCCCC)CCCCCCCC` (centres unmarked) [Compound 57], the “Apparant Pka” value in data set [1] was determined as 5.325. In data set [2], the “Encapsulation Efficiency” value was determined as 91.0%. In addition, in data set [3], the polydispersity was 0.196 and the “size (nm)” value was 78.22 nm.

Consider `CCCCCCCCC(CCCCCC)COP(=O)(NCCCCN(C)C)OCC(CCCCCC)CCCCCCCC` (centres unmarked) [Compound 22], for which the “Apparant Pka” value in data set [1] amounted to 7.37. Moreover, in data set [2], the “Encapsulation Efficiency” value is 98.7%. For the same molecule, in data set [3], the polydispersity stood at 0.101 and the “size (nm)” value is reported as 79.13 nm.

Consider `CCCCCCCCC(CCCCCCCC)OC(=O)CCCCCCCOP(=O)(NCCCN(C)C)OCCCCCCC` (centres unmarked) [Compound 43], for which the “Apparant Pka” value in data set [1] is on record as 8.08. Moreover, the “Encapsulation Efficiency” value in data set [2] came out at 98.3%. Besides, in data set [3], the polydispersity was 0.196 and the “size (nm)” value turned out to be 76.16 nm.

Turning to `CCCCCCCCC(CCCCCC)COP(=O)(NCCN(CCO)C1CCCC1)OCC(CCCCCC)CCCCCCCC` (centres unmarked) [Compound 58], the “Apparant Pka” value in data set [1] worked out at 5.681. Besides, the “Encapsulation Efficiency” value in data set [2] is 88.8%. In addition, in data set [3], the polydispersity is given as 0.057 and the “size (nm)” value is listed as 97.61 nm.

Take `CCCCCCCC(CCCCCCC)COP(=O)(NCCN1CCCC1)OCC(CCCCCCC)CCCCCCC` [Compound 85]: the “Apparant Pka” value in data set [1] is reported as 5.216. The “Encapsulation Efficiency” value in data set [2] came out at 71.7%. In data set [3], the polydispersity is 0.153 and the “size (nm)” value is given as 53.57 nm.
